From the NIST ThermoML archive (doi:10.1016/j.fluid.2015.03.023) come the findings set out here.

The conditions of this data set: Liquid; for mass density: 298.15 K, 101.33 kPa, Vibrating tube method; for vapor or sublimation pressure: 308.15 K, Ebulliometric method (Recirculating still).

SMILES strings stand for the structures. ± gives the expanded uncertainty stated by the source.

As a reminder, the mass density is the mass of a sample divided by its volume. For orientation: vapor or sublimation pressure means the pressure of vapour in equilibrium with the condensed phase. For `ClCBr` [bromochloromethane], the mass density turned out to be 1921.71 ± 1.1 kg/m3 and the “vapor or sublimation pressure” value is given as 31.05 ± 0.18 kPa.

In the case of `ClC(Cl)(Cl)Br` [bromotrichloromethane], the mass density was found to be 2002.14 ± 1.2 kg/m3 and the “vapor or sublimation pressure” value is 8.428 ± 0.1 kPa.

For `BrCBr` [dibromomethane], the mass density was found to be 2478.61 ± 1.8 kg/m3 and the “vapor or sublimation pressure” value came out at 9.932 ± 0.1 kPa.

On to `CCCCCCC` [heptane], for which the mass density is recorded as 679.6 ± 0.18 kg/m3 and the “vapor or sublimation pressure” value is recorded as 9.916 ± 0.1 kPa.
